Results taken from patent US9732094B2, “Arylquinazolines” (Merck Patent GmbH, priority 2013, dated 2017).
Like-named read-outs stand apart in the source and are kept apart here.

Experiments:
DNA-PK = DNA-PK (Homo sapiens (Human), UniProt P78527); experiment: DNA-PK assay (biochemical), flashplate 33P-ATP kinase assay
How it was run: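 Reactions ran in streptavidin-coated flashplates and were halted by 200 mM EDTA, with a further 30 min at room temperature before saline washing.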

[1] = target: DNA-PK phosphorylation at serine 2056 (Homo sapiens (Human), UniProt P78527); experiment: DNA-PK phosphorylation at serine 2056 (cellular), bleomycin-treated HCT116 cells, ELISA; format: cell-based; settings: HCT116 cells, read-out: IC50 pDNA-PK
How it was run: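 Chemiluminescent ELISA read-out; phospho-specific signal normalised to total DNA-PKcs. Cells (HCT116) exposed 6 h to test compound plus 10 μM bleomycin to induce double-strand breaks; DMSO control served as blank.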

Kv11.1 (hERG) = Kv11.1 (hERG) (Homo sapiens (Human), UniProt Q12809); experiment: Kv11.1 (hERG) ion channel activity (patch clamp assay), HEK293 cells transfected with hERG gene
Sequence of Kv11.1 (hERG) (Q12809 whole entry): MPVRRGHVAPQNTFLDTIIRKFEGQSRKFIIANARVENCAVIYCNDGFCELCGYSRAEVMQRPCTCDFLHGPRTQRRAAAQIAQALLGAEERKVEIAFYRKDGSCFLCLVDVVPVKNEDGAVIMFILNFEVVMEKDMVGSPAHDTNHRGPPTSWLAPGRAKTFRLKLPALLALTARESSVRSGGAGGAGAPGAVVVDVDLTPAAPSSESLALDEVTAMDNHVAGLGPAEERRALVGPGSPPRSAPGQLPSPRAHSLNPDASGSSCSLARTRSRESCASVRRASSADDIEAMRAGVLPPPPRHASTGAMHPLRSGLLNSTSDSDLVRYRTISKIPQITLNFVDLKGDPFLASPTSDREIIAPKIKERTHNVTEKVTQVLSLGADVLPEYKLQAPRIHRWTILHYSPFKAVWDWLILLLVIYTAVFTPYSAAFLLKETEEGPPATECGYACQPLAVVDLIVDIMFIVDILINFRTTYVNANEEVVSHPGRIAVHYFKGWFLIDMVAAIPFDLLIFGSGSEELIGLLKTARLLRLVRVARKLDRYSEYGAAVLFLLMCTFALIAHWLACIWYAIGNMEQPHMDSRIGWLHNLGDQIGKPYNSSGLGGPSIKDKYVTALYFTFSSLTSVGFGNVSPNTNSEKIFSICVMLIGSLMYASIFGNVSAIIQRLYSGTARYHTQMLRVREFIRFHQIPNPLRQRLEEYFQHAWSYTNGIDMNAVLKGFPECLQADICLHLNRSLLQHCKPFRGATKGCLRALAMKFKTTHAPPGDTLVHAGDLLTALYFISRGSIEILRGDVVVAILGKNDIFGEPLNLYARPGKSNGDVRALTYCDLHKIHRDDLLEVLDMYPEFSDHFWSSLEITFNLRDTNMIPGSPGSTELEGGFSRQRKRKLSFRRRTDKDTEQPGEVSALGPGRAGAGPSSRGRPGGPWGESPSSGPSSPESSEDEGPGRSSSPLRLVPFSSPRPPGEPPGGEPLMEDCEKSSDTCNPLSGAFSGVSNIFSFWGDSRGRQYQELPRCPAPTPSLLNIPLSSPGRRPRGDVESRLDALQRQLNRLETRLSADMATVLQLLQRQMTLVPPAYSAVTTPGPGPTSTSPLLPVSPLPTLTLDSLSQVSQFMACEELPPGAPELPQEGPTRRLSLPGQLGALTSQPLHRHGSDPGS

[2] = cellular, 10 μM bleomycin, six hours
[3] = read-out: Ki [Kv1.11 hERG], patch clamp, HEK293 transfected with hERG gene
[4] = Ki [Kv1.11 hERG], patch clamp, HEK293 transfected with hERG gene
[5] = read-out: Ki [Kv1.11 hERG], Table 5

SMILES | IC50 (DNA-PK; enzymatic, 5 μM ATP) [µM] | IC50 [1, 2] [µM] | Ki (Kv11.1 (hERG); [3]) [µM] | Ki (Kv11.1 (hERG); [4]) [µM] | IC50 (DNA-PK; Table 5) [µM] | IC50 ([1]; Table 5) [µM] | Ki (Kv11.1 (hERG); [5]) [µM] | Ki (Kv11.1 (hERG); Ki [Kv1.11 hERG], Table 5) [µM]
NC(=O)COc1ccc(C(O)c2cc(-c3ncnc4cc(N5CCOCC5)ccc34)c(F)cc2Cl)nn1 (stereo not drawn) [Example 111, 2-(6-{[2-Chloro-4-fluoro-5-(7-morpholin-4-yl-quinazolin-4-yl)-phenyl]hydroxy-methyl}pyridazin-3-yloxy)acetamide] | 0.003 to 0.007 | 5 to 10 | > 25 | – | – | – | – | –
COCCOc1ccc(C(O)c2cc(-c3ncnc4cc(N5CCOCC5)ccc34)c(F)cc2Cl)nn1 (stereo not drawn) [Example 112, [2-Chloro-4-fluoro-5-(7-morpholin-4-yl-quinazolin-4-yl)-phenyl]-[6-(2-methoxyethoxy)-pyridazin-3-yl]-methanol] | < 0.003 | 0.5 to 5 | – | 15 to 25 | – | – | – | –
O=C(O)COc1ccc(C(O)c2cc(-c3ncnc4cc(N5CCOCC5)ccc34)c(F)cc2Cl)nn1 (stereo not drawn) [Example 113, (6-{[2-Chloro-4-fluoro-5-(7-morpholin-4-yl-quinazolin-4-yl)-phenyl]hydroxy-methyl}pyridazin-3-yl-oxy)acetic acid] | 0.003 to 0.007 | 10 to 30 | > 25 | – | – | – | – | –
COC(=O)COc1ccc(C(O)c2cc(-c3ncnc4cc(N5CCOCC5)ccc34)c(F)cc2Cl)nn1 (stereo not drawn) [Example 114, (6-{[2-Chloro-4-fluoro-5-(7-morpholin-4-yl-quinazolin-4-yl)-phenyl]hydroxy-methyl}pyridazin-3-yl-oxy)acetic acid methyl ester] | 0.003 to 0.007 | 10 to 30 | > 25 | – | – | – | – | –
OC(c1ccc(OCC(F)(F)F)nn1)c1cc(-c2ncnc3cc(N4CCOCC4)ccc23)c(F)cc1Cl (stereo not drawn) [Example 115, [2-Chloro-4-fluoro-5-(7-morpholin-4-yl-quinazolin-4-yl)-phenyl]-[6-(2,2,2-trifluoroethoxy)-pyridazin-3-yl]-methanol] | 0.003 to 0.007 | 0.5 to 5 | – | 10 to 15 | – | – | – | –
OCCOc1ccc(C(O)c2cc(-c3ncnc4cc(N5CCOCC5)ccc34)c(F)cc2Cl)nn1 (stereo not drawn) [Example 116, 2-(6-{[2-Chloro-4-fluoro-5-(7-morpholin-4-yl-quinazolin-4-yl)-phenyl]hydroxy-methyl}pyridazin-3-yl-oxy)ethanol] | < 0.003 | 0.5 to 5 | > 25 | – | – | – | – | –
Nc1nccnc1C(O)c1cc(-c2ncnc3cc(N4CCOCC4)ccc23)c(F)cc1Cl (stereo not drawn) [Example 117, (3-Amino-pyrazin-2-yl)-[2-chloro-4-fluoro-5-(7-morpholin-4-yl-quinazolin-4-yl)-phenyl]methanol] | 0.003 to 0.007 | 0.5 to 5 | – | 15 to 25 | – | – | – | –
N#Cc1ccc(C(O)c2cc(-c3ncnc4cc(N5CCOCC5)ccc34)c(F)cc2Cl)nn1 (stereo not drawn) [Example 118, 6-{[2-Chloro-4-fluoro-5-{7-morpholin-4-yl-quinazolin-4-yl)-phenyl]hydroxy-methyl}pyridazine-3-carbonitrile] | 0.003 to 0.007 | 0.5 to 5 | – | 15 to 25 | – | – | – | –
N#CCOc1ccc(C(O)c2cc(-c3ncnc4cc(N5CCOCC5)ccc34)c(F)cc2Cl)nn1 (stereo not drawn) [Example 119, (6-{(2-Chloro-4-fluoro-5-(7-morpholin-4-yl-quinazolin-4-yl)-phenyl] hydroxy-methyl}pyridazin-3-yl-oxy)acetonitrile] | < 0.003 | < 0.5 | – | 15 to 25 | – | – | – | –
COc1ccc(C(O)c2cc(-c3ncnc4cc(N5CCOCC5)ccc34)c(F)cc2F)cc1 (stereo not drawn) [Example 120, [2.4-Difluoro-5-(7-morpholin-4-yl-quinazolin-4-yl)-phenyl]-(4-methoxyphenyl)-methanol] | 0.007 to 0.03 | 0.5 to 5 | < 10 | – | – | – | – | –
OC(c1ccc(F)c(-c2ncnc3cc(N4CCOCC4)ccc23)c1)c1ccc(OC(F)F)nn1 (stereo not drawn) [Example 121, (6-Difluoro-methoxy-pyridazin-3-yl)-[4-fluoro-3-(7-morpholin-4-yl-quinazolin-4-yl)-phenyl]methanol] | 0.003 to 0.007 | 0.5 to 5 | – | 15 to 25 | – | – | – | –
C#CC(O)(c1ccc(OC)nn1)c1cc(-c2ncnc3cc(N4CCOCC4)ccc23)c(F)cc1Cl (stereo not drawn) [Example 122, 1-[2-Chloro-4-fluoro-5-(7-morpholin-4-yl-quinazolin-4-yl)-phenyl]-1-(6-methoxy-pyridazin-3-yl)-prop-2-yn-1-ol] | 0.007 to 0.03 | 0.5 to 5 | – | 10 to 15 | – | – | – | –
COc1ccc(C(O)(c2cc(-c3ncnc4cc(N5CCOCC5)ccc34)c(F)cc2Cl)C(F)F)nn1 (stereo not drawn) [Example 123, 1-[2-Chloro-4-fluoro-5-(7-morpholin-4-yl-quinazolin-4-yl)-phenyl]-2,2-difluoro-1-(6-methoxy-pyridazin-3-yl)-ethanol] | 0.007 to 0.03 | 10 to 30 | > 25 | – | – | – | – | –
COc1ccc(C(O)c2cc(-c3ncnc4cc(N5CCOCC5)ccc34)c(F)cc2F)c(F)c1 (stereo not drawn) [Example 124, [2,4-Difluoro-5-(7-morpholin-4-yl-quinazolin-4-yl)-phenyl]-(2-fluoro-4-methoxy-phenyl)methanol] | 0.007 to 0.03 | 0.5 to 5 | < 10 | – | – | – | – | –
COc1ccc(C(C)(O)c2cc(-c3ncnc4cc(N5CCOCC5)ccc34)c(F)cc2Cl)nn1 (stereo not drawn) [Example 125, 1-[2-Chloro-4-fluoro-5-(7-morpholin-4-yl-quinazolin-4-yl)-phenyl]-1-(6-methoxy-pyridazin-3-yl)-ethanol] | 0.003 to 0.007 | 10 to 30 | – | 15 to 25 | – | – | – | –
COc1ccc(C(O)c2cc(-c3ncnc4cc(N5CCOCC5)sc34)c(F)cc2Cl)nn1 (stereo not drawn) [Example 128, (2-Chloro-4-fluoro-5-(6-morpholin-4-ylthieno[3,2-d}-pyrimidin-4-yl)-phenyl]-(6-methoxy-pyridazin-3-yl)-methanol] | < 0.003 | 0.5 to 5 | – | 15 to 25 | – | – | – | –
COc1ccc(C(O)c2cc(-c3nc(Cl)nc4cc(N5CCOCC5)ccc34)c(F)cc2Cl)nn1 (stereo not drawn) [Example 132, [2-Chloro-5-(2-chloro-7-morpholin-4-yl-quinazolin-4-yl)-4-fluorophenyl]-(6-methoxy-pyridazin-3-yl)-methanol] | 0.003 to 0.007 | 0.5 to 5 | > 25 | – | – | – | – | –
CN(C)CCOc1ccc(C(O)c2ccc(F)c(-c3ncnc4cc(N5CCOCC5)ccc34)c2)nn1 (stereo not drawn) [Example 133, [6-(2-Dimethyl-amino-ethoxy)-pyridazin-3-yl]-[4-fluoro-3-(7-morpholin-4-yl-quinazolin-4-yl)-phenyl]methanol] | 0.007 to 0.03 | 5 to 10 | > 25 | – | – | – | – | –
CCOc1ccc(C(O)c2ccc(F)c(-c3ncnc4cc(N5CCOCC5)ccc34)c2)nn1 (stereo not drawn) [Example 134, (6-Ethoxy-pyridazin-3-yl)-[4-fluoro-3-(7-morpholin-4-yl-quinazolin-4-yl)-phenyl]methanol] | 0.007 to 0.03 | 0.5 to 5 | – | 10 to 15 | – | – | – | –
OC(c1ccc(F)c(-c2ncnc3cc(C4=CCOCC4)ccc23)c1)c1nccs1 (stereo not drawn) [Example 139, {3-[7-(3,6-Dihydro-2H-pyran-4-yl)-quinazolin-4-yl]-4-fluoro-phenyl}-thiazol-2-ylmethanol] | – | – | – | – | 0.007 to 0.03 | 10 to 30 | > 25 | –
OC(c1ccc(F)c(-c2ncnc3cc(N4CCOCC4)ncc23)c1)c1nccs1 (stereo not drawn) [Example 140, [4-Fluoro-3-(7-morpholin-4-yl-pyrido[4,3-d}-pyrimidin-4-yl)-phenyl]thiazol-2-yl-methanol] | – | – | – | – | > 0.03 | 10 to 30 | – | 15 to 25
OCc1csc(C(O)c2cc(-c3ncnc4cc(N5CCOCC5)ncc34)c(F)cc2Cl)n1 (stereo not drawn) [Example 141, [2-chloro-4-fluoro-5-(7-morpholin-4-ylpyrido[4,3-d]pyrimidin-4-yl)phenyl]-(4-hydroxymethylthiazol-2-yl)methanol] | – | – | – | – | > 0.03 | 10 to 30 | – | 15 to 25
OCc1csc(C(O)c2cc(-c3ncnc4cc(N5CCOCC5)ccc34)c(F)cc2Cl)n1 (stereo not drawn) [Example 142, [2-Chloro-4-fluoro-5-(7-morpholin-4-yl-quinazolin-4-yl)-phenyl]-(4-hydroxymethyl-thiazol-2-yl)-methanol] | – | – | – | – | < 0.003 | 0.5 to 5 | < 10 | –
CNCc1csc(C(O)c2cc(-c3ncnc4cc(N5CCOCC5)ccc34)c(F)cc2Cl)n1 (stereo not drawn) [Example 143, [2-Chloro-4-fluoro-5-(7-morpholin-4-ylquinazolin-4-yl)phenyl]-(4-methylaminomethylthiazol-2-yl)methanol] | – | – | – | – | 0.007 to 0.03 | 5 to 10 | – | 10 to 15
OC(c1cccc(-c2ncnc3cc(N4CCOCC4)ccc23)c1)c1nccs1 (stereo not drawn) [Example 148, [3-(7-Morpholin-4-ylquinazolin-4-yl)-phenyl]thiazol-2-yl-methanol] | – | – | – | – | 0.007 to 0.03 | 10 to 30 | – | 10 to 15
OC(c1cccc(-c2ncnc3cc(N4CCOCC4)ccc23)c1)c1nccs1 (stereo not drawn) [Example 150, [3-(7-Morpholin-4-ylquinazolin-4-yl)-phenyl]thiazol-2-yl-methanol] | – | – | – | – | 0.007 to 0.03 | 5 to 10 | > 25 | –
CC(O)(c1cncc(-c2ncnc3cc(N4CCOCC4)ccc23)c1)c1nccs1 (stereo not drawn) [Example 152, 1-[5-(7-Morpholin-4-ylquinazolin-4-yl)-pyridin-3-yl]-1-thiazol-2-ylethanol] | – | – | – | – | 0.007 to 0.03 | 10 to 30 | > 25 | –
OC(c1cccc(-c2ncnc3cc(N4CCOCC4)ccc23)c1)(c1nccs1)C(F)(F)F (stereo not drawn) [Example 159, 2,2,2-Trifluoro-1-[3-(7-morpholin-4-yl-quinazolin-4-yl)-phenyl]-1-thiazol-2-ylethanol] | – | – | – | – | 0.007 to 0.03 | 10 to 30 | < 10 | –
